# Source: US12240816B2, “Deuterated compounds and uses thereof” (Aldeyra Therapeutics, Inc., priority 2015, dated 2025)
# Values joined by “and” are separate entries in the source; they are usually repeats but may differ in a detail not shown here. Identical values can stand only once. “Also recorded” adds a separate entry of the source. Like-named read-outs stand apart in the source and are kept apart here. Marks after values point to notes of the source that are not given here.
# Legend:
# [1] = system: rat hippocampal cultures; assay: Propidium iodide cell death assay, protection from hydrogen peroxide toxicity; format: cell-based
# [2] = system: dog hepatocytes
# [3] = system: human hepatocytes; format: in vitro ADME
# [4] = target: guanylyl cyclase (h) (Homo sapiens, UniProt Q02108+Q02153); format: biochemical; conditions: guanylyl cyclase (h) (activator effect); 1.0E−05M
# Chain of guanylyl cyclase (h) (Q02153 whole entry): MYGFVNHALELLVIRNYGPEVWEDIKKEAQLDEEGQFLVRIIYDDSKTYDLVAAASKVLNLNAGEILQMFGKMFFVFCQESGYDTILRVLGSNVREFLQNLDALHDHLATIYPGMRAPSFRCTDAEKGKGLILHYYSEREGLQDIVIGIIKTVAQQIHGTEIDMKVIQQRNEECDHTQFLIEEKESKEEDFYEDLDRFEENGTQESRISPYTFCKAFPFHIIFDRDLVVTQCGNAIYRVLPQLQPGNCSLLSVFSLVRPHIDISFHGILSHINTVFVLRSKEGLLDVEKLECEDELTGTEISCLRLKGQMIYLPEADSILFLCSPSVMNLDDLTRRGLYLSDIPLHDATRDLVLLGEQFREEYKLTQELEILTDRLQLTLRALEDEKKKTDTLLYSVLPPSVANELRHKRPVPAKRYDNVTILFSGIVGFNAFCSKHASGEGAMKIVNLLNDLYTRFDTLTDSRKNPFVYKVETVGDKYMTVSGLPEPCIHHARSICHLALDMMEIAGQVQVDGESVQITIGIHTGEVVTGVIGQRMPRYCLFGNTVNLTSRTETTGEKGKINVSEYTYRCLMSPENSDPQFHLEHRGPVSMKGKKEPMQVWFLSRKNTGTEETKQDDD
# Chain of guanylyl cyclase (h) (Q02108 whole entry): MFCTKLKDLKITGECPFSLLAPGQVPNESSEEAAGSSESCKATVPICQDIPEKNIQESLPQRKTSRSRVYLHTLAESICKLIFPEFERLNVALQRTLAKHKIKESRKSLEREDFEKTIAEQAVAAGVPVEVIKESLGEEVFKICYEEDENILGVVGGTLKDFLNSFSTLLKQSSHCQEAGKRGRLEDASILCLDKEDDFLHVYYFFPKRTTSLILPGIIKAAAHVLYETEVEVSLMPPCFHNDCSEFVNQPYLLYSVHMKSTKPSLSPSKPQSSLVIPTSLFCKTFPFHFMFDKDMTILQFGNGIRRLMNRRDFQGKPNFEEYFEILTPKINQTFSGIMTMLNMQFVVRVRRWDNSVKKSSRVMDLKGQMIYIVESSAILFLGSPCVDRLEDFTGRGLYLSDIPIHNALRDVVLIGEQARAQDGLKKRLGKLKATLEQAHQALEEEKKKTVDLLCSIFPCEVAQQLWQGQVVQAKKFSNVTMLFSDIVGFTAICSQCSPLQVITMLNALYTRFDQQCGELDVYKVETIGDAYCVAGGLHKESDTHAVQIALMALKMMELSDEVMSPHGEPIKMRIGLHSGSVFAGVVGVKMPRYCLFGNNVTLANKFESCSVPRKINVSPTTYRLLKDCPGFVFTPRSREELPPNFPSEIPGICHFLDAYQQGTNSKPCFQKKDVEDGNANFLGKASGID
# [5] = target: 5-HT2B (h) (Homo sapiens, UniProt P41595); assay: 5-HT2B (h) (agonist radioligand) binding assay; conditions: 1.0E−05M
# Chain of 5-HT2B (h) (P41595 whole entry): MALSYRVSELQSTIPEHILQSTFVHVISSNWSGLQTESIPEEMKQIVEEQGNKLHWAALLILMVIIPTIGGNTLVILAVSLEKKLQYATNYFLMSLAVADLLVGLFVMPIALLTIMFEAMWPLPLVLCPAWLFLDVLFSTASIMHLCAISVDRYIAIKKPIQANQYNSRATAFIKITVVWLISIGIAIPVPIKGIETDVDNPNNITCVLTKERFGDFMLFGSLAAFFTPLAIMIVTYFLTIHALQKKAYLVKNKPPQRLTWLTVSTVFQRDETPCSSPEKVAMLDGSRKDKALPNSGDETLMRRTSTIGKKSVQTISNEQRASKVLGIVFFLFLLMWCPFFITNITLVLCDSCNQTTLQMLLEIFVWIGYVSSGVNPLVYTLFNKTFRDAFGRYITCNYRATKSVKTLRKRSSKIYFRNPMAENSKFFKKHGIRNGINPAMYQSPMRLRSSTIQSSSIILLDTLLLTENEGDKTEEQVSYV
# [6] = target: enzyme and uptake assay panel targets (Table 36) (Homo sapiens, UniProt P43403); assay: biochemical; format: biochemical; conditions: ZAP70 kinase (h); 1.0E−05M
# Chain of enzyme and uptake assay panel targets (Table 36) (Homo sapiens, UniProt P43403) (P43403 whole entry): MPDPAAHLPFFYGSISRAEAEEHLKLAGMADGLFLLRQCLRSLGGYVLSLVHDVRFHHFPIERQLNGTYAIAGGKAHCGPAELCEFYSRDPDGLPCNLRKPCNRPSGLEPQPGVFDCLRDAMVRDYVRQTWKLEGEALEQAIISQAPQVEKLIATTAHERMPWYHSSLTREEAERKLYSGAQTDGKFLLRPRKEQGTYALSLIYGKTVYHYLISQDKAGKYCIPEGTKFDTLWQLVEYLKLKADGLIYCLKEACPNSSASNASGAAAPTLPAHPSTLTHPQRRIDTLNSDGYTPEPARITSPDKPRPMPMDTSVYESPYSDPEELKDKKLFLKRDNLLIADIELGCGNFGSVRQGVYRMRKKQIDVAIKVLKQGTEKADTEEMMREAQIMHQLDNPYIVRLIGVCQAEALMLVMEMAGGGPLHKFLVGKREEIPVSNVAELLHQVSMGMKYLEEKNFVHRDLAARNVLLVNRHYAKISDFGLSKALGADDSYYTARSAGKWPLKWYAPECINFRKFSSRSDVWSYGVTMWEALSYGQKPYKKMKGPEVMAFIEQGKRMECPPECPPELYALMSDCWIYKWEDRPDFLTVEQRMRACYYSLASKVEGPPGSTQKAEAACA
# [7] = target: enzyme and uptake assay panel targets (Table 36) (Human immunodeficiency virus type 1 group M subtype B, UniProt P04585); assay: biochemical; format: biochemical; conditions: HIV-1 protease; 1.0E−05M
# [8] = target: enzyme and uptake assay panel targets (Table 36) (Homo sapiens, UniProt P28482); assay: biochemical; format: biochemical; conditions: ERK2 (h) (P42^mapk); 1.0E−05M
# Chain of enzyme and uptake assay panel targets (Table 36) (Homo sapiens, UniProt P28482) (P28482 whole entry): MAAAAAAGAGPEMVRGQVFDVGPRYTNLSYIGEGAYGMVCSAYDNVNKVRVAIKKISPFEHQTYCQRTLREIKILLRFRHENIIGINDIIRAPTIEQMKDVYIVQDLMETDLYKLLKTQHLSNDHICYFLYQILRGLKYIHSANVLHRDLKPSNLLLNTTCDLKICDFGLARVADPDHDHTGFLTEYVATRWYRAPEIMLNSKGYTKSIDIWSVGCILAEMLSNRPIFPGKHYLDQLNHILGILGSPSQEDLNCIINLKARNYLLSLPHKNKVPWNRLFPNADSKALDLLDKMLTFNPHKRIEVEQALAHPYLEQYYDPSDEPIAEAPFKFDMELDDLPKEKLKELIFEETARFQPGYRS
# [9] = target: enzyme and uptake assay panel targets (Table 36) (Homo sapiens, UniProt Q9UQM7); assay: biochemical; format: biochemical; conditions: CaMK2α (h); 1.0E−05M
# Chain of enzyme and uptake assay panel targets (Table 36) (Homo sapiens, UniProt Q9UQM7) (Q9UQM7 whole entry): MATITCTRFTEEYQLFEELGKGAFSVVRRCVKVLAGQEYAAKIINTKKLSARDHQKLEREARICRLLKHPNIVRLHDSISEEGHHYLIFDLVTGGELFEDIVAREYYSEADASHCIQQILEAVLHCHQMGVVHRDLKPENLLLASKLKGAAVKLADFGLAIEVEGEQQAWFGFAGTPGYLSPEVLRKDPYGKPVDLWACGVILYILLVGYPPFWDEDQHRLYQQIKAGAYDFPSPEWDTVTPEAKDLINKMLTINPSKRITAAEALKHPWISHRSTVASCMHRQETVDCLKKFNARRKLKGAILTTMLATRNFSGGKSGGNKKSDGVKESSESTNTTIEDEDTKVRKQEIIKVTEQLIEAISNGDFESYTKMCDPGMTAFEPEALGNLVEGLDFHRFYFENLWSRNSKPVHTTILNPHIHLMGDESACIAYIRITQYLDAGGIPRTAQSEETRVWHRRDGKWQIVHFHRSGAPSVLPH
# [10] = target: enzyme and uptake assay panel targets (Table 36) (Homo sapiens, UniProt P42574); assay: biochemical; format: biochemical; conditions: caspase-3 (h); 1.0E−05M
# Chain of enzyme and uptake assay panel targets (Table 36) (Homo sapiens, UniProt P42574) (P42574 29-277): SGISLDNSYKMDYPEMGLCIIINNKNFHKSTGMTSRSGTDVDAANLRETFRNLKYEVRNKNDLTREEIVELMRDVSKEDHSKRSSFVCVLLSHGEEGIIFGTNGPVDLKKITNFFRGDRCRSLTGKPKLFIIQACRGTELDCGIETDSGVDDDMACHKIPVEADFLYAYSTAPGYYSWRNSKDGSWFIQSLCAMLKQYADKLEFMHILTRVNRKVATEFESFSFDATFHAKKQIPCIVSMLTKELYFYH
# [11] = system: enzyme and uptake assay panel targets (Table 36); assay: biochemical; format: biochemical; conditions: COMT (catechol-O-methyl transferase); 1.0E−05M; flag INTER: Test compound interferes with the assay detection method
# [12] = system: T1, enzyme and uptake assay panel targets (Table 36); assay: biochemical; format: biochemical; conditions: ATPase (Na+/K+); 1.0E−05M
# T1 construct: other: ATPase (Na+/K+); 1.0E−05M; nH; porcine cerebral cortex
# [13] = target: enzyme and uptake assay panel targets (Table 36) (Homo sapiens, UniProt Q16539); assay: biochemical; format: biochemical; conditions: p38α kinase (h); 1.0E−05M
# Chain of enzyme and uptake assay panel targets (Table 36) (Homo sapiens, UniProt Q16539) (Q16539 whole entry): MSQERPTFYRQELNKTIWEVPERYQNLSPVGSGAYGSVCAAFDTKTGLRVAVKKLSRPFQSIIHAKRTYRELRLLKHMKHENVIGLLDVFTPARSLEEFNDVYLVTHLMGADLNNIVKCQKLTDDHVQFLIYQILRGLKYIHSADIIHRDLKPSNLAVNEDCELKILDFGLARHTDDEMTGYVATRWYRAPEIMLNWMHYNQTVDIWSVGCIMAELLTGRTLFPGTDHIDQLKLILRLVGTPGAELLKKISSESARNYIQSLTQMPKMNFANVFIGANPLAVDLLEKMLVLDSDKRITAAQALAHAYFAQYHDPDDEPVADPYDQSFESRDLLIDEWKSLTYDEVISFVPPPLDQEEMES
# [14] = target: T2, PR (h) (Homo sapiens, UniProt P06401); assay: PR (h) (agonist radioligand) binding assay; conditions: 1.0E−05M
# T2 construct: T47D cells (cytosol)
# T2 sequence (P06401 679-933): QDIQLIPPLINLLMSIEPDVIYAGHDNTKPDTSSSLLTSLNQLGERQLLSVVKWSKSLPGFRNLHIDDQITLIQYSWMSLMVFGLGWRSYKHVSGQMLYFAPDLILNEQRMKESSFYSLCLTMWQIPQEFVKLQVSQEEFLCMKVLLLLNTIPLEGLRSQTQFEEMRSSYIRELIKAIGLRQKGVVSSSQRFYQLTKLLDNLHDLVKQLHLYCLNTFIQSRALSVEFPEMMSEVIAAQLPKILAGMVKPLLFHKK
# [15] = NS2 (CoreRx micro-milled, Captisol) 0.1 μM + 10 μM hydrogen peroxide, 5 h
# [16] = NS2 (CoreRx micro-milled, Captisol) 1 μM + 10 μM hydrogen peroxide, 5 h
# [17] = NS2 (CoreRx micro-milled, Captisol) 10 μM + 10 μM hydrogen peroxide, 5 h
# [18] = NS2 (CoreRx micro-milled, Captisol) 100 μM + 10 μM hydrogen peroxide, 5 h
# [19] = NS2 (CoreRx micro-milled, Captisol) 1 mM + 10 μM hydrogen peroxide, 5 h
# [20] = NS2 (CoreRx micro-milled, DMSO) 0.1 μM + 10 μM hydrogen peroxide, 5 h
# [21] = NS2 (CoreRx micro-milled, DMSO) 1 μM + 10 μM hydrogen peroxide, 5 h
# [22] = NS2 (CoreRx micro-milled, DMSO) 10 μM + 10 μM hydrogen peroxide, 5 h
# [23] = NS2 (CoreRx micro-milled, DMSO) 100 μM + 10 μM hydrogen peroxide, 5 h
# [24] = NS2 (CoreRx micro-milled, DMSO) 1 mM + 10 μM hydrogen peroxide, 5 h
# [25] = NS2 (J-Star non-milled, Captisol) 0.1 μM + 10 μM hydrogen peroxide, 5 h
# [26] = NS2 (J-Star non-milled, Captisol) 1 μM + 10 μM hydrogen peroxide, 5 h
# [27] = NS2 (J-Star non-milled, Captisol) 10 μM + 10 μM hydrogen peroxide, 5 h
# [28] = NS2 (J-Star non-milled, Captisol) 100 μM + 10 μM hydrogen peroxide, 5 h
# [29] = NS2 (J-Star non-milled, Captisol) 1 mM + 10 μM hydrogen peroxide, 5 h
# [30] = NS2 (J-Star non-milled, DMSO) 0.1 μM + 10 μM hydrogen peroxide, 5 h
# [31] = NS2 (J-Star non-milled, DMSO) 1 μM + 10 μM hydrogen peroxide, 5 h
# [32] = NS2 (J-Star non-milled, DMSO) 10 μM + 10 μM hydrogen peroxide, 5 h
# [33] = NS2 (J-Star non-milled, DMSO) 100 μM + 10 μM hydrogen peroxide, 5 h
# [34] = NS2 (J-Star non-milled, DMSO) 1 mM + 10 μM hydrogen peroxide, 5 h
# [35] = PI, Captisol formulation, 10 μM hydrogen peroxide, 5 h
# [36] = PI, DMSO formulation, 10 μM hydrogen peroxide, 5 h
# [37] = read-out: % Inhibition of Control Specific Binding 1st
# [38] = read-out: % Inhibition of Control Specific Binding 2nd
# [39] = read-out: % Inhibition of Control Specific Binding Mean
smiles,measurement,setting,value
"CC(C)(O)c1nc2ccc(Cl)cc2cc1N [NS2, 2-(3-amino-6-chloroquinolin-2-yl)propan-2-ol]",% of Control (PI),[1]; [15],167 ± 10%
same,"PI signal, Mean",[1]; [15],261
same,"PI signal, replicate wells",[1]; [15],246 (4×) and 323
same,% of Control (PI),[1]; [16],171 ± 9%
same,"PI signal, Mean",[1]; [16],266
same,"PI signal, replicate wells",[1]; [16],246 (2×) and 267 and 319 and 254
same,% of Control (PI),[1]; [17],108 ± 20%
same,"PI signal, Mean",[1]; [17],169*
same,"PI signal, replicate wells",[1]; [17],180 (3×) and 57 and 246
same,% of Control (PI),[1]; [18],115 ± 13%
same,"PI signal, Mean",[1]; [18],180*
same,"PI signal, replicate wells",[1]; [18],246 and 137 and 144 and 180 and 192
same,% of Control (PI),[1]; [19],130 ± 8%
same,"PI signal, Mean",[1]; [19],203*
same,"PI signal, replicate wells",[1]; [19],188 and 217 and 246 and 184 and 180
same,% of Control (PI),[1]; [20],189 ± 9%
same,"PI signal, Mean",[1]; [20],267
same,"PI signal, replicate wells",[1]; [20],315 and 259 and 246 and 263 and 254
same,% of Control (PI),[1]; [21],190 ± 9%
same,"PI signal, Mean",[1]; [21],268
same,"PI signal, replicate wells",[1]; [21],254 (3×) and 315 and 263
same,% of Control (PI),[1]; [22],115 ± 11%
same,"PI signal, Mean",[1]; [22],163*
same,"PI signal, replicate wells",[1]; [22],117 and 137 and 180 and 188 and 192
same,% of Control (PI),[1]; [23],113 ± 11%
same,"PI signal, Mean",[1]; [23],159*
same,"PI signal, replicate wells",[1]; [23],192 and 117 and 125 and 180 (2×)
same,% of Control (PI),[1]; [24],138 ± 6%
same,"PI signal, Mean",[1]; [24],195*
same,"PI signal, replicate wells",[1]; [24],188 and 180 (2×) and 204 and 221
same,% of Control (PI),[1]; [25],165 ± 22%
same,"PI signal, Mean",[1]; [25],232
same,"PI signal, replicate wells",[1]; [25],350 and 180 (2×) and 204 and 246
same,% of Control (PI),[1]; [26],172 ± 24%
same,"PI signal, Mean",[1]; [26],242
same,"PI signal, replicate wells",[1]; [26],180 and 192 and 184 and 315 and 337
same,% of Control (PI),[1]; [27],113 ± 12%
same,"PI signal, Mean",[1]; [27],160*
same,"PI signal, replicate wells",[1]; [27],180 and 188 and 117 (2×) and 196
same,% of Control (PI),[1]; [28],99 ± 7%
same,"PI signal, Mean",[1]; [28],139*
same,"PI signal, replicate wells",[1]; [28],180 and 133 and 129 (2×) and 125
same,% of Control (PI),[1]; [29],120 ± 6%
same,"PI signal, Mean",[1]; [29],169*
same,"PI signal, replicate wells",[1]; [29],180 (3×) and 133 and 172
same,% of Control (PI),[1]; [30],175 ± 17%
same,"PI signal, Mean",[1]; [30],275
same,"PI signal, replicate wells",[1]; [30],350 and 259 and 246 and 315 and 204
same,% of Control (PI),[1]; [31],143 ± 9%
same,"PI signal, Mean",[1]; [31],225
same,"PI signal, replicate wells",[1]; [31],188 and 250 and 246 (2×) and 196
same,% of Control (PI),[1]; [32],115 ± 2%
same,"PI signal, Mean",[1]; [32],181*
same,"PI signal, replicate wells",[1]; [32],180 (3×) and 192 and 172
same,% of Control (PI),[1]; [33],111 ± 18%
same,"PI signal, Mean",[1]; [33],175*
same,"PI signal, replicate wells",[1]; [33],246 (2×) and 133 and 125 (2×)
same,% of Control (PI),[1]; [34],113 ± 15%
same,"PI signal, Mean",[1]; [34],177*
same,"PI signal, replicate wells",[1]; [34],117 and 250 and 180 and 204 and 133
same,Full Efficacy Concentration,[1]; [35],10 µM
same,No effect Concentration,[1]; [35],1 µM
same,EC50,"[1]; PI, Captisol formulation, 10 μM hydrogen peroxide, 5 h, values with * are estimates, listed as NS2 (J-Star), read-out: EC50 ± SE",2800 nM
same,Full Efficacy Concentration,[1]; [36],10 µM
same,No effect Concentration,[1]; [36],1 µM
same,EC50,"[1]; PI, DMSO formulation, 10 μM hydrogen peroxide, 5 h, values with * are estimates, listed as NS2 (J-Star), read-out: EC50 ± SE",1100 nM
same,Full protection concentration,"[1]; PI, both NS2 formulations and both batches",10 µM
same,no effect concentration,"[1]; PI, both formulations and batches",1 µM
same,EC50,"[1]; Rattus norvegicus, 5 h, PI, DMSO formulation, 10 μM hydrogen peroxide, 5 h, values with * are estimates, read-out: EC50 ± SE",1300 nM
same,EC50,"[1]; Rattus norvegicus, PI, across formulations and batches, read-out: EC50 range",1100 to 2800 nM
same,EC50,"[1]; Rattus norvegicus, PI, best available estimate, read-out: EC50, mean value for all PI data",2000 ± 1000 nM
same,metabolite profile,"[2]; NS2, 120 min, dog hepatocytes","metabolized to M1, M2, M5, and M6, with some unchanged NS2 remaining; also recorded: two different mono-oxidation products (M1 and M2) and two different glutathione (GSH) conjugates (M5 and M6)"
same,Peak Areas Dog,"[2]; dog, 120 min, 3 μM",4.79E+07
same,metabolite profile,"[3]; NS2, 120 min, human hepatocytes","metabolized to M1, M7, M8, and a low amount of M9, with some unchanged NS2 remaining; also recorded: a mono-oxidation metabolite (M), two oxidation+glucuronidation metabolites (M7 and M9), and a glucuronidation metabolite (M)"
same,Peak Areas Human,"[3]; human, 120 min, 3 μM",4.41E+08
[2H]C([2H])([2H])C(O)(c1nc2ccc(Cl)cc2cc1N)C([2H])([2H])[2H] [Compound I-1],% of Control Values 1st,[4],0.2%
same,% of Control Values 2nd,[4],0.3%
same,% of Control Values Mean,[4],0.2%
same,inhibition at 10 µM,[5]; [37],60.8%
same,inhibition at 10 µM,[5]; [38],64.2%
same,inhibition at 10 µM,[5]; [39],62.5%
same,% inhibition of Control Values 1st,[6],0.4%
same,% inhibition of Control Values 2nd,[6],1.5%
same,% inhibition of Control Values Mean,[6],1.0%
same,% inhibition of Control Values 1st,[7],16.6%
same,% inhibition of Control Values 2nd,[7],4.8%
same,% inhibition of Control Values Mean,[7],10.7%
same,% inhibition of Control Values 1st,[8],−6.3%
same,% inhibition of Control Values 2nd,[8],−1.3%
same,% inhibition of Control Values Mean,[8],−3.8%
same,% inhibition of Control Values 1st,[9],0.2%
same,% inhibition of Control Values 2nd,[9],−6.5%
same,% inhibition of Control Values Mean,[9],−3.1%
same,% inhibition of Control Values 1st,[10],−2.0%
same,% inhibition of Control Values 2nd,[10],2.5%
same,% inhibition of Control Values Mean,[10],0.2%
same,% inhibition of Control Values 1st,[11],5.8%
same,% inhibition of Control Values 2nd,[11],14.7%
same,% inhibition of Control Values Mean,[11],10.3%
same,% inhibition of Control Values 1st,[12],5.2%
same,% inhibition of Control Values 2nd,[12],−0.4%
same,% inhibition of Control Values Mean,[12],2.4%
same,% inhibition of Control Values 1st,[13],−3.2%
same,% inhibition of Control Values 2nd,[13],−3.1%
same,% inhibition of Control Values Mean,[13],−3.2%
same,inhibition at 10 µM,[14]; [37],58.7%
same,inhibition at 10 µM,[14]; [38],63.1%
same,inhibition at 10 µM,[14]; [39],60.9%
